These results are taken from article PMC8305101, “Synthesis and Cytotoxicity Evaluation of Spirocyclic Bromotyrosine Clavatadine C Analogs” (Marine Drugs, 2021).

The structures appear in SMILES notation. “And” between values parts separate entries of the source, which are not always exact repeats. Equal entries are not always repeated. Structures can show the parent of a compound that is named as a salt. Where two headings read alike, the source gives them in different places.

Data set [1] relates to SKMel-147 melanoma cell line. Also on record: method as in PMID 32228987. The settings on record: SKMel-147 melanoma cells; cited from earlier work.
Data set [2] concerns Mel-Juso melanoma cell line. Also on record: method as in PMID 32228987. The settings on record: Mel-Juso melanoma cells; cited from earlier work.
Data set [3] has as its system Malme-3M melanoma cell line. On the set-up: method as in PMID 32228987. The note with it: Malme-3M melanoma cells; cited from earlier work.
Data set [4] concerns breast cancer cell line MCF-7. Also on record: method as in PMID 32228987. The settings on record: MCF-7 breast cancer cells; cited from earlier work.
Data set [5] concerns human malignant melanoma A-375 cell line. In words: Cytotoxicity in A-375 melanoma cells (CellTiter-Glo ATP viability). It is filed as cell-based. The settings on record: for CC50 / cytotoxicity at 50 µM: Homo sapiens; for CC50: read-out: CC50 (µM) in A-375 Cells; for Selectivity Index (SI): ratio of CC50 values between Hs27 fibroblasts and A-375 melanoma cells, SD in parentheses. Here is the method:
(§1) Analysis of selectivity to cancer cells. The cells were seeded to white frame and clear bottom 96-well plates (Perkin Elmer) at a density of 10,000 cells/well for the human malignant melanoma A-375 cell line (ATCC CRL-1619) and 7500 cells/well for the human skin fibroblast Hs27 cell line (ATCC CRL-1634). The cells were grown at 37 °C, 5% CO2 until they reached 70–80% confluence (approximately 24 h). Stock solutions of test compounds and a positive control (camptothecin, Sigma-Aldrich, St. Louis, MO, USA) were prepared in DMSO and diluted into the assay medium (growth medium with 5% FBS) to the final concentration. Final DMSO concentration was 0.5% in all samples. The culture medium was removed from the plate and compounds added, 200 µL/well. After a 48-h incubation, the amount of ATP, which is directly proportional to the number of viable cells present in culture, was quantified using CellTiter-Glo® Luminescent Cell Viability kit (Promega, Madison, WI, USA), according to manufacturer’s instructions. Origin Graphing and Analysis, version 9.55 (OriginLab, Northampton, MA, USA), was used for determination of CC50 values. The cancer cell selectivity index was calculated as a ratio of CC50 values between Hs27 fibroblasts and A-375 melanoma cells. Standard deviation of selectivity indices was calculated using Equation (1) (1) σ(x¯/y¯)=(σ(x)/x¯)^2+(σ(y)/y¯)^2
On the technique in general: ATP-based viability assays read luminescence as a measure of living cells.

Data set [6] relates to MCF7 (breast) cancer cell line. Also on record: method as in doi:10.1016/j.tetlet.2016.10.019. The note with it: cited from earlier work.
Data set [7] has as its system MDA-MB-231 (breast) cancer cell line. Also on record: method as in doi:10.1016/j.tetlet.2016.10.019. The settings on record: cited from earlier work.
Data set [8] deals with A549 (lung) cancer cell line. On the set-up: method as in doi:10.1016/j.tetlet.2016.10.019. The settings on record: cited from earlier work.
Data set [9] in a line: Cytotoxicity in Hs27 normal skin fibroblasts (CellTiter-Glo ATP viability). It is filed as cell-based. The settings on record: human, 48-h incubation, mean (SD) of 2–3 independent experiments in triplicate. The protocol: as §1
Data set [10] has as its system caspases 3/7 in A-375 cells. In words: Apoptosis induction assay, caspase-3/7 activity (ApoTox-Glo) in A-375 cells. The note with it: 1 × CC50 concentration. It is filed as cell-based, human. The protocol: Apoptosis induction assay and imaging. A-375 cells were seeded to white 96-well plates and treated with compounds at 1 × CC50 concentration, 100 µL/well, following the procedure described above. After 24 and 48 h, caspase-3/7 activity was measured using the ApoTox-Glo kit (Promega) following the manufacturer’s instructions. The light microscopy images were taken using 4× phase contrast objective and Cytation5 automated imaging reader (Biotek).

[11] abbreviates: A-375, 48 h, read-out: Primary Test Results (Cytotoxicity % at 50 µM in A-375 Cells), 50 µM, A-375 cells, 48-h incubation, single experiment with three technical replicates.
The mark [12] stands for this setting: read-out: CC50 (µM) in Hs27 Cells.

On to `COC1=C(Br)[C@H](O)[C@@]2(C=C1Br)CC(C(=O)NCC(O)COc1c(Br)cc(C(O)CNC(=O)C3=NO[C@]4(C=C(Br)C(OC)=C(Br)[C@@H]4O)C3)cc1Br)=NO2` (stereo partly shown) [isofistularin-3], for which the “Effect on cell viability” value is “no significant decrease” in data set [1], “no significant decrease” in [2], “no significant decrease” in data set [3] and “reduced cell viability” in data set [4].
As to `N=C(N)NCCCCNC(=O)C1=NOC2(C=C(Br)C(=O)C(Br)=C2)C1` [Compound 1-TFA, 7,9-Dibromo-N-(4-guanidinobutyl)-8-oxo-1-oxa-2-azaspiro[4.5]deca-2,6,9-triene-3-carboxamide], the “Primary Test Results (Cytotoxicity % at 50 µM in A-375 Cells)” value in data set [5] (50 µM, A-375 cells, 48-h incubation, single experiment with three technical replicates) was “less than 25% and 0.5%”. In addition, in [6], the “Activity against MCF7 cancer cell line” value is given as “moderate activity”. The “Activity against MDA-MB-231 cancer cell line” value in data set [7] was “moderate activity”. Also, the “Activity against A549 cancer cell line” value in data set [8] was “moderate activity”.
As for `O=C1C=CC2(C=C1)CC(C(=O)NCCc1ccccn1)=NO2` [Compound 32, 8-Oxo-N-[2-(pyridin-2-yl)ethyl]-1-oxa-2-azaspiro[4.5]deca-2,6,9-triene-3-carboxamide], the half-maximal cytotoxic concentration (CC50) (as a rule, the concentration at which the toxic effect on the cells reaches its halfway point) in data set [5] (A-375, 48 h) turned out to be 1.5 µM. Further, the cytotoxicity at 50 µM in data set [5] (setting [11]) is 97.5%. For the same compound, the “Selectivity Index (SI)” value in [5] is given as 1.5 (0.9). The cytotoxic concentration (CC50) at 48 h in data set [9] (setting [12]) worked out at 2.2 µM.
For `COc1ccc(CNC(=O)C2=NOC3(C=C(Br)C(=O)C(Br)=C3)C2)cc1` [Compound 24, 7,9-Dibromo-N-(4-methoxybenzyl)-8-oxo-1-oxa-2-azaspiro[4.5]deca-2,6,9-triene-3-carboxamide], in that order: 3.5 µM, 97.8%, 0.9 (0.3) and 3.3 µM.
For `O=C(NNC(=O)c1ccccn1)C1=NOC2(C=C(Br)C(=O)C(Br)=C2)C1` [Compound 38, 7,9-Dibromo-8-oxo-N’-picolinoyl-1-oxa-2-azaspiro[4.5]deca-2,6,9-triene-3-carbohydrazide], in that order: 12.3 µM, 93.5%, 0.5 (0.5) and 6.4 µM.
For `O=C1C=CC2(C=C1)CC(C(=O)NNC(=O)c1ccccn1)=NO2` [Compound 37, 8-Oxo-N’-picolinoyl-1-oxa-2-azaspiro[4.5]deca-2,6,9-triene-3-carbohydrazide], in that order: 2.5 µM, 89.3%, 2.4 (0.3) and 6 µM.
Turning to `Cn1nc(-c2ccc(Cl)cc2)cc1NC(=O)C1=NOC2(C=CC(=O)C=C2)C1` [Compound 40, N-[3-(4-Chlorophenyl)-1-methyl-1H-pyrazol-5-yl]-8-oxo-1-oxa-2-azaspiro[4.5]deca-2,6,9-triene-3-carboxamide], the CC50 in data set [5] (A-375, 48 h) amounted to 0.5 µM. In data set [5] (setting [11]), the cytotoxicity at 50 µM came to 99.9%. In addition, the “Selectivity Index (SI)” value in data set [5] was 1.0 (0.8). Also, the CC50 at 48 h in data set [9] (setting [12]) turned out to be 0.5 µM.
Turning to `O=C(Nc1cc(Cl)cc(Cl)c1)C1=NOC2(C=C(Br)C(=O)C(Br)=C2)C1` [Compound 19, 7,9-Dibromo-N-(3,5-dichlorophenyl)-8-oxo-1-oxa-2-azaspiro[4.5]deca-2,6,9-triene-3-carboxamide], in data set [5] (A-375, 48 h), the CC50 amounted to 9.2 µM. In addition, the cytotoxicity at 50 µM in data set [5] (setting [11]) came out at 94.9%. Also, the “Selectivity Index (SI)” value in data set [5] is given as 0.7 (0.5). Further, the CC50 at 48 h in data set [9] (setting [12]) came to 6.8 µM.
As for `CC[C@@]1(O)C(=O)OCc2c1cc1n(c2=O)Cc2cc3ccccc3nc2-1` [Camptothecin, reference compound], the cytotoxicity at 50 µM in data set [5] (50 µM, A-375 cells, 48-h incubation, single experiment with three technical replicates, read-out: Primary Test Results (Cytotoxicity % at 50 µM in A-375 Cells)) came out at 94.7%. The CC50 in data set [5] (A-375 cells, 48-h incubation, mean (SD) of 2–3 independent experiments in triplicate) is 0.05 µM. In data set [5], the “Selectivity Index (SI)” value is 70.9 (0.5). In data set [9] (Hs27 skin fibroblast cells), this compound displayed a CC50 at 48 h of 3.6 µM. Further, the “Caspase 3/7 induction, fold change relative to DMSO-treated control” value in data set [10] (24 h) is on record as about 20 fold; in data set [10] (48 h), “nearly fivefold”.
In the case of `COc1ccc(NC(=O)C2=NOC3(C=CC(=O)C=C3)C2)cc1Cl` [Compound 20, N-(3-Chloro-4-methoxyphenyl)-8-oxo-1-oxa-2-azaspiro[4.5]deca-2,6,9-triene-3-carboxamide], in data set [5] (A-375, 48 h), the cytotoxic concentration (CC50) turned out to be 1.2 µM. Moreover, the cytotoxicity at 50 µM in [5] (setting [11]) was 100%. Further, the “Selectivity Index (SI)” value in [5] is given as 1.3 (0.5). For the same compound, the CC50 at 48 h in [9] (setting [12]) stood at 1.5 µM.
As to `O=C1C=CC2(C=C1)CC(C(=O)Nc1ccccn1)=NO2` [Compound 28, 8-Oxo-N-(pyridin-2-yl)-1-oxa-2-azaspiro[4.5]deca-2,6,9-triene-3-carboxamide], in [5] (A-375, 48 h), the CC50 is 1.9 µM. The cytotoxicity at 50 µM in data set [5] (setting [11]) is 99.6%. In addition, in data set [5], the “Selectivity Index (SI)” value is recorded as 0.8 (0.4). In data set [9] (setting [12]), the 50% cytotoxic concentration (CC50) at 48 h was 1.5 µM.
On the same counts, the results for `COc1ccc(CCNC(=O)C2=NOC3(C=CC(=O)C=C3)C2)cc1` [Compound 25, N-(4-Methoxyphenethyl)-8-oxo-1-oxa-2-azaspiro[4.5]deca-2,6,9-triene-3-carboxamide] are 1.2 µM, 100%, 1.7 (0.3) and 2 µM.
On the same counts, the results for `O=C(NCCc1ccccn1)C1=NOC2(C=C(Br)C(=O)C(Br)=C2)C1` [Compound 33, 7,9-Dibromo-8-oxo-N-[2-(pyridin-2-yl)ethyl]-1-oxa-2-azaspiro[4.5]deca-2,6,9-triene-3-carboxamide] are 3.6 µM, 98.9%, 1.9 (0.6) and 6.6 µM.
Turning to `COc1ccc(CNC(=O)C2=NOC3(C=CC(=O)C=C3)C2)cc1` [Compound 23, N-(4-Methoxybenzyl)-8-oxo-1-oxa-2-azaspiro[4.5]deca-2,6,9-triene-3-carboxamide], the CC50 in data set [5] (A-375, 48 h) worked out at 1.2 µM. In addition, in [5] (setting [11]), the cytotoxicity at 50 µM is 100%. For the same compound, in data set [5], the “Selectivity Index (SI)” value was 1.2 (0.6). The half-maximal cytotoxic concentration (CC50) at 48 h in data set [9] (setting [12]) was 1.4 µM.
For `O=C(Nc1nc2c(s1)CCCC2)C1=NOC2(C=C(Br)C(=O)C(Br)=C2)C1` [Compound 42, 7,9-Dibromo-8-oxo-N-(4,5,6,7-tetrahydrobenzo[d]thiazol-2-yl)-1-oxa-2-azaspiro[4.5]deca-2,6,9-triene-3-carboxamide], in that order: 3.5 µM, 97.5%, 1.3 (0.5) and 4.4 µM.
For `O=C1C=CC2(C=C1)CC(C(=O)N1CCOCC1)=NO2` [Compound 15, 3-(Morpholine-4-carbonyl)-1-oxa-2-azaspiro[4.5]deca-2,6,9-trien-8-one], in that order: 3.8 µM, 96.1%, 0.7 (0.2) and 2.5 µM.
For `O=C(Nc1ccccn1)C1=NOC2(C=C(Br)C(=O)C(Br)=C2)C1` [Compound 29, 7,9-Dibromo-8-oxo-N-(pyridin-2-yl)-1-oxa-2-azaspiro[4.5]deca-2,6,9-triene-3-carboxamide], in that order: 2.4 µM, 101%, 2.4 (0.4) and 5.8 µM.
